According to patent publication US10604487B2, “Pyridinol derivative or pharmaceutically acceptable salt thereof, and pharmaceutical composition containing same as active ingredient” (Research Cooperation Foundation of Yeungnam University, priority 2016, dated 2020):
Where two headings read alike, the source gives them in different places. Values belong to the molecule of their own block, whether it stands above or below them.

Columns and labels:
[1] = tested on: TNF-α-induced adhesion of monocytes to intestinal epithelial cells; assay: Inhibitory activity against TNF-α-induced adhesion of monocytes (U937) to intestinal epithelial cells (HT-29); format: cell-based, human; settings: Homo sapiens
Protocol: HT-29 human colorectal cancer-derived epithelial cells and U937 human-derived monocytic cells were cultured in an RPMI 1640 medium containing 10% FBS and 1% penicillin/streptomycin (PS) at 37° C. under a condition of 5% CO2, and when the cells were grown to 80% or more in a culture flask, they were subcultured in a ratio of 1:3 to be used in this test. The HT-29 cells were cultured in a 24-well plate at a concentration of 2×10^5 cells/cm2, and then the medium only containing 1% FBS and 1% PS was pretreated with a test drug for 1 hour. Afterward, BCECF-loaded U937 cells by being treated with 10 μg/mL of BCECF-AM at 37° C. for 30 minutes and 10 ng/mL of TNF-α reacted with the HT-29 cells previously treated with the test drug at 37° C. for 3 hours. After the reaction, the medium was removed, and then the cells were washed with PBS twice to remove U937 cells that were not adhered. In a subsequent step, for cell lysis, 0.1% Triton X-100 (0.1 M Tris) was treated to allow a reaction at room temperature for 30 minutes, and then fluorescence was measured using a Fluostar optima microplate reader (BMG LABTECH, Germany) to quantify the cells (Carvalho et al., 1996; Thapa et al., 2008).

[2] = Cytotoxicity test (MTT), HT-29; format: cell-based; settings: human, HT-29, 48 h; for viability at 48 h, 0.01 µM / viability at 48 h, 0.1 µM / viability at 48 h, 1 µM / viability at 48 h, 10 µM / viability at 48 h, 100 µM: HT-29 cells (colorectal cancer cell line), read-out: Cell viability (% of control); for IC50 at 48 h: HT-29 cells, read-out: IC50 (μM), cytotoxicity
Protocol: (§1) The human colorectal cancer cell line HT-29 and the monocytic blood cancer-derived cell line U937 were cultured in a RPMI 1640 medium containing 10% FBS and 1% penicillin/streptomycin (PS) at 37° C. under a condition of 5% CO2, and when the cells used herein were grown to 80% or more, they were subcultured at a ratio of 1:3.
(§2) Each type of cells were cultured in a 96 well plate at a concentration of 1×10^5 cells/cm2, treated with a test compound by concentration in a medium only containing 1% FBS and 1% PS at 37° C. under a condition of 5% CO2 for 48 hours and reacted with 5 mg/mL of a 3-[4,5-dimethylthiazol-2-yl]-2,5-diphenyltetrazolium bromide (MTT) reagent for 4 hours, and then the medium was completely removed, the cells were treated with DMSO, formazan crystals were dissolved for 30 minutes, and then absorbance was measured at 540 nm.

[3] = Cytotoxicity test (MTT), U937; format: cell-based; settings: human, U937, 48 h; for viability at 48 h, 0.01 µM / viability at 48 h, 0.1 µM / viability at 48 h, 1 µM / viability at 48 h, 10 µM / viability at 48 h, 100 µM: U937 cells (monocytic blood cancer-derived cell line), read-out: Cell viability (% of control); for IC50 at 48 h: U937 cells
Protocol: as §1, §2

[4] = 1 μM test drug, HT-29/U937 adhesion, 10 ng/mL TNF-α, read-out: Inhibitory activity (%)

Structure (SMILES): Cc1cccc(C(C)(C)C)c1NC(=O)Nc1nc(C)c(O)c(C)c1C [Compound 16-4, 1-(2-tert-butyl-6-methylphenyl)-3-(5-hydroxy-3,4,6-trimethylpyridin-2-yl)urea]
inhibition at 1 µM [1, 4]: 34.3% | viability at 48 h, 0.01 µM [2]: 76.6 ± 6.9% | viability at 48 h, 0.1 µM [2]: 76.8 ± 5% | viability at 48 h, 1 µM [2]: 74.7 ± 6% | viability at 48 h, 10 µM [2]: 62.1 ± 2.9% | viability at 48 h, 100 µM [2]: 43.6 ± 1.8% | IC50 at 48 h [2]: 34.7 µM | viability at 48 h, 0.01 µM [3]: 95 ± 2.9% | viability at 48 h, 0.1 µM [3]: 91.2 ± 1.9% | viability at 48 h, 1 µM [3]: 91.3 ± 1.2% | viability at 48 h, 10 µM [3]: 85.4 ± 0.2% | viability at 48 h, 100 µM [3]: 75.5 ± 1.7% | IC50 at 48 h [3]: > 100 µM

Structure (SMILES): Cc1nc(NC(=S)Nc2ccc(Cl)c(Cl)c2)c(C)c(C)c1O[Si](c1ccccc1)(c1ccccc1)C(C)(C)C [Compound 17-8c, 1-(5-((tert-butyldiphenylsilyl)oxy)-3,4,6-trimethylpyridin-2-yl)-3-(3,4-dichlorophenyl)thiourea]
inhibition at 1 µM [1, 4]: 18.8%

Structure (SMILES): COc1c(C)nc(NC(=S)Nc2cccc(C(F)(F)F)c2)c(C)c1C [Compound 17-9b, 1-(5-Methoxy-3,4,6-trimethylpyridin-2-yl)-3-(3-(trifluoromethyl)phenyl)thiourea]
inhibition at 1 µM [1, 4]: 39%

Structure (SMILES): Cc1nc(NC(=O)NC(=O)c2ccccc2)c(C)c(C)c1O [Compound 16-16, N-((5-hydroxy-3,4,6-trimethylpyridin-2-yl)carbamoyl)benzamide]
inhibition at 1 µM [1, 4]: 34.2%

Structure (SMILES): Cc1nc(NC(=O)Nc2ccc(Br)cc2)c(C)c(C)c1O [Compound 16-8, 1-(4-Bromophenyl)-3-(5-hydroxy-3,4,6-trimethylpyridin-2-yl)urea]
inhibition at 1 µM [1, 4]: 17.2%

Structure (SMILES): Cc1nc(NC(=S)Nc2ccc(Br)cc2)c(C)c(C)c1O [Compound 18-7, 1-(4-bromophenyl)-3-(5-hydroxy-3,4,6-trimethylpyridin-2-yl)thiourea]
inhibition at 1 µM [1, 4]: 27.8%

Structure (SMILES): Cc1nc(OCCC(C)C)c(C)c(C)c1O [Compound 28-4, 6-isopentyloxy-2,4,5-trimethylpyridin-3-ol]
inhibition at 1 µM [1, 4]: 33.2%

Structure (SMILES): COc1ccc(NC(=O)Nc2nc(C)c(O)c(C)c2C)cc1 [Compound 16-10, 1-(5-Hydroxy-3,4,6-trimethylpyridin-2-yl)-3-(4-methoxyphenyl)urea]
inhibition at 1 µM [1, 4]: 12.6%

Structure (SMILES): Cc1nc(OCCCc2ccccc2)c(C)c(C)c1O [Compound 28-6, 2,4,5-Trimethyl-6-(3-phenylpropoxy)pyridin-3-ol]
inhibition at 1 µM [1, 4]: ≥ 50%

Structure (SMILES): Cc1nc(NC(=O)Nc2ccc(F)cc2)c(C)c(C)c1O [Compound 16-7, 1-(4-Fluorophenyl)-3-(5-hydroxy-3,4,6-trimethylpyridin-2-yl)urea]
inhibition at 1 µM [1, 4]: 14.6%

Structure (SMILES): Cc1nc(NC(=O)Nc2ccc(OC(F)(F)F)cc2)c(C)c(C)c1O [Compound 16-13, 1-(5-hydroxy-3,4,6-trimethylpyridin-2-yl)-3-(4-(trifluoromethoxy)phenyl)urea]
inhibition at 1 µM [1, 4]: 12.6%

Structure (SMILES): Cc1nc(NC(=O)Nc2ccc(C(F)(F)F)cc2)c(C)c(C)c1O [Compound 16-11, 1-(5-hydroxy-3,4,6-trimethylpyridin-2-yl)-3-(4-(trifluoromethyl)phenyl)urea]
inhibition at 1 µM [1, 4]: 52.7%

IC50 ([1]; HT-29/U937 adhesion, TNF-α-induced, read-out: IC50 (adhesion inhibition)): 18100 µM
Structure (SMILES): Nc1ccc(O)c(C(=O)O)c1 [Compound 5-ASA, 5-aminosalicylic acid, reference compound]
inhibition at 1 µM [1, 4]: 3.8% | inhibition at 1 µM ([1]; 1 μM, Table 8, read-out: 1 μM concentration inhibitory activity): 3.8%

Structure (SMILES): COc1ccc(NC(=S)Nc2nc(C)c(O[Si](c3ccccc3)(c3ccccc3)C(C)(C)C)c(C)c2C)cc1 [Compound 17-12c, 1-(5-((tert-Butyldiphenylsilyl)oxy)-3,4,6-trimethylpyridin-2-yl)-3-(4-methoxyphenyl)thiourea]
inhibition at 1 µM [1, 4]: 16%

Structure (SMILES): Cc1nc(NC(=S)Nc2cccc(C(F)(F)F)c2)c(C)c(C)c1OCc1ccccc1 [Compound 17-9a, 1-(5-benzyloxy-3,4,6-trimethylpyridin-2-yl)-3-(3-(trifluoromethyl)phenyl)thiourea]
inhibition at 1 µM [1, 4]: 19.6%

Structure (SMILES): COc1c(C)nc(NC(=S)Nc2ccc(Cl)c(Cl)c2)c(C)c1C [Compound 17-8b, 1-(3,4-dichlorophenyl)-3-(5-methoxy-3,4,6-trimethylpyridin-2-yl)thiourea]
inhibition at 1 µM [1, 4]: 39.5%

Structure (SMILES): CCCCOc1nc(C)c(O)c(C)c1C [Compound 28-2, 6-butoxy-2,4,5-trimethylpyridin-3-ol]
inhibition at 1 µM [1, 4]: 48.2%

Structure (SMILES): COc1ccc(NC(=S)Nc2nc(C)c(O)c(C)c2C)cc1 [Compound 18-12, 1-(5-Hydroxy-3,4,6-trimethylpyridin-2-yl)-3-(4-methoxyphenyl)thiourea]
inhibition at 1 µM [1, 4]: 13.3%

Structure (SMILES): Cc1nc(NC(=S)Nc2ccc(Cl)c(Cl)c2)c(C)c(C)c1OCc1ccccc1 [Compound 17-8a, 1-(5-benzyloxy-3,4,6-trimethylpyridin-2-yl)-3-(3,4-dichlorophenyl)thiourea]
inhibition at 1 µM [1, 4]: 17.3%

Structure (SMILES): CCCCCCCCOc1nc(C)c(O)c(C)c1C [Compound 28-3, 2,4,5-Trimethyl-6-(octyloxy)pyridin-3-ol]
inhibition at 1 µM [1, 4]: 30.4%

Structure (SMILES): COc1cccc2c1C(=O)c1c(O)c3c(c(O)c1C2=O)C[C@@](O)(C(=O)CO)C[C@@H]3O[C@H]1C[C@H](N)[C@H](O)[C@H](C)O1 [Doxorubicin, reference compound]
viability at 48 h, 0.01 µM [2]: 69.9 ± 1.1% | viability at 48 h, 0.1 µM [2]: 66.9 ± 3.3% | viability at 48 h, 1 µM [2]: 58.2 ± 6.4% | viability at 48 h, 10 µM [2]: 53.2 ± 5.1% | viability at 48 h, 100 µM [2]: 35.7 ± 2% | IC50 at 48 h [2]: 12.9 µM | viability at 48 h, 0.01 µM [3]: 93.6 ± 1.8% | viability at 48 h, 0.1 µM [3]: 91.4 ± 3.3% | viability at 48 h, 1 µM [3]: 42.2 ± 1.3% | viability at 48 h, 10 µM [3]: 38.3 ± 0.6% | viability at 48 h, 100 µM [3]: 33.2 ± 1.3% | IC50 at 48 h [3]: 0.6 µM

Structure (SMILES): Cc1nc(NC(=O)Nc2ccc(C(C)C)cc2)c(C)c(C)c1O [Compound 16-15, 1-(5-hydroxy-3,4,6-trimethylpyridin-2-yl)-3-(4-isopropylphenyl)urea]
inhibition at 1 µM [1, 4]: 11.5%

Structure (SMILES): Cc1nc(OC2CCCC2)c(C)c(C)c1O [Compound 28-5, 6-cyclopentyloxy-2,4,5-trimethylpyridin-3-ol]
inhibition at 1 µM [1, 4]: 28.8%

Structure (SMILES): Cc1nc(NC(=S)Nc2cccc(C(F)(F)F)c2)c(C)c(C)c1O[Si](c1ccccc1)(c1ccccc1)C(C)(C)C [Compound 17-9c, 1-(5-((tert-Butyldiphenylsilyl)oxy)-3,4,6-trimethylpyridin-2-yl)-3-(3-(trifluoromethyl)phenyl)thiourea]
inhibition at 1 µM [1, 4]: 25.9%

Structure (SMILES): O=c1[nH]cc(F)c(=O)[nH]1 [5-Fluorouracil, reference compound]
viability at 48 h, 0.01 µM [2]: 85.5 ± 3.9% | viability at 48 h, 0.1 µM [2]: 77.6 ± 4.6% | viability at 48 h, 1 µM [2]: 61.9 ± 4.2% | viability at 48 h, 10 µM [2]: 48.3 ± 2% | viability at 48 h, 100 µM [2]: 36 ± 2.5% | IC50 at 48 h [2]: 7.6 µM | viability at 48 h, 0.01 µM [3]: 93 ± 2.7% | viability at 48 h, 0.1 µM [3]: 89.8 ± 2.7% | viability at 48 h, 1 µM [3]: 75.7 ± 0.6% | viability at 48 h, 10 µM [3]: 71.3 ± 1.7% | viability at 48 h, 100 µM [3]: 59.7 ± 0.2% | IC50 at 48 h [3]: > 100 µM

Structure (SMILES): Cc1nc(O)c(C)c(C)c1O [Compound 28-1, 3,4,6-Trimethylpyridine-2,5-diol]
inhibition at 1 µM [1, 4]: ≥ 50%

Structure (SMILES): Cc1ccc(NC(=S)Nc2nc(C)c(O)c(C)c2C)cc1 [Compound 18-5, 1-(5-hydroxy-3,4,6-trimethylpyridin-2-yl)-3-(p-tolyl)thiourea]
inhibition at 1 µM [1, 4]: 19.2%

Structure (SMILES): Cc1ccc(NC(=O)Nc2nc(C)c(O)c(C)c2C)cc1 [Compound 16-9, 1-(5-hydroxy-3,4,6-trimethylpyridin-2-yl)-3-(p-tolyl)urea]
inhibition at 1 µM [1, 4]: 20.1%

Structure (SMILES): Cc1nc(NC(=O)NCc2ccccc2)c(C)c(C)c1O [Compound 16-14, 1-benzyl-3-(5-hydroxy-3,4,6-trimethylpyridin-2-yl)urea]
inhibition at 1 µM [1, 4]: 4.9%
